# In US7994318B2, “Coumarin derivatives useful as TNFα inhibitors” (Chugai Seiyaku Kabushiki Kaisha, priority 2000, dated 2011):
# System: TNFα
# Assay: In vitro assay: TNFα ELISA of supernatants of LPS-stimulated human PBMC
# Type: cell-based
# Conditions: Homo sapiens, PBMC, human PBMC pretreated with drug 60 min, stimulated with LPS (E. coli O55:B5) 100 ng/mL, overnight culture, TNFα in supernatant by ELISA; read-out: 50% Inhibition of TNFα level (IC50)
# Method: Enzyme-linked immunosorbent assays (ELISA) for TNFα can be performed in a conventional manner (Blood, 75, 40-47 (1990)). Human PBMC are isolated from heparinized venous blood obtained from healthy volunteers by Ficoll-Hypaque density centrifugation. The cells are cultured in RPMI1640 medium supplemented with 5% heat-inactivated fetal calf serum and antibiotics. PBMC (5×10E5 cells/mL) in 0.2 mL aliquot are pretreated with drugs in DMSO for 60 min at 37° C. in 96 well round-bottomed tissue culture plates. Thereafter, PBMC in the presence or absence of compound are stimulated with 1 mg/mL LPS from E. coli O55:B5 at a final concentration of 100 ng/mL. After overnight culture, the supernatants are harvested and assayed immediately for TNFα levels from each well. The concentration of TNFα in the supernatant is determined by human TNFα ELISA Kit according to the manufacture's directions.
# Active compounds are characterized by the concentration of the compound that caused 50% inhibition of TNFα level (IC50).
row,SMILES,IC50 [nM]
1,"Cc1c(Cc2ccccc2)c(=O)oc2c(C=O)c(OC(=O)N(C)C)ccc12 [Example 6, dimethyl carbamic acid 2-oxo-2H-3-benzyl-4-methyl-8-formyl-1-benzopyran-7-yl ester]",12900
2,"Cc1c(Cc2ccccc2)c(=O)oc2cc(Cn3ccnc3N)ccc12 [Example 25, 2-oxo-3-benzyl-4-methyl-7-(2-aminoimidazol-1-yl-methyl)-1H-benzopyrane]",11800
3,"Cc1c(Cc2ccccc2)c(=O)oc2cc(C(F)(F)C(=O)N(C)C)ccc12 [Example 24, 2-oxo-3-benzyl-4-methyl-7-(N,N-dimethylaminocarboxy-difluoromethyl)-1H-benzopyrane]",10400
4,"COc1cc2c(C)c(Cc3ccccc3)c(=O)oc2cc1OC(=O)N(C)C [Example 3, dimethyl carbamic acid 2-oxo-2H-3-benzyl-4-methyl-6-methoxy-1-benzopyran-7-yl ester]",580
5,"Cc1c(Cc2ccccc2)c(=O)oc2cc(Oc3ncccn3)ccc12 [Example 15, 2-oxo-2H-3-benzyl-4-methyl-7-(pyrimidin-2-yloxyl)-1-benzopyrane]",9400
6,"CN(C)C(=O)Oc1ccc2c(CCO)c(Cc3ccccc3)c(=O)oc2c1 [Example 4, dimethyl carbamic acid 2-oxo-2H-3-benzyl-4-(2-hydroxylethyl)-1-benzopyran-7-yl ester]",2100
7,"CN(C)C(=O)Oc1ccc2c(CC(O)c3ccccn3)c(Cc3ccccc3)c(=O)oc2c1 (stereo not drawn) [Example 5, dimethyl carbamic acid 2-oxo-2H-3-benzyl-4-(2-(2-pyridyl)-2-hydroxylethyl)-1-benzopyran-7-yl ester]",19300
8,"CN(C)C(=O)Oc1ccc2c(-c3cccnc3)c(Cc3ccccc3)c(=O)oc2c1 [Example 8, dimethyl carbamic acid 2-oxo-2H-3-benzyl-4-(m-pyridyl)-1-benzopyran-7-yl ester]",18700
9,"Cc1c(Cc2ccccc2)c(=O)oc2cc(OC(=O)N(C)C)cc(F)c12 [Example 10, dimethyl carbamic acid 2-oxo-2H-3-benzyl-4-methyl-5-fluoro-1-benzopyran-7-yl ester]",< 600

# Same assay, conditions: human PBMC pretreated with drug 60 min, stimulated with LPS (E. coli O55:B5) 100 ng/mL, overnight culture, TNFα in supernatant by ELISA; listed as 14-4; read-out: 50% Inhibition of TNFα level (IC50)
row,SMILES,IC50 [nM]
1,"Cc1c(Cc2ccccc2)c(=O)oc2cc(OC(=O)N(C)C)cc(F)c12 [Example 10, dimethyl carbamic acid 2-oxo-2H-3-benzyl-4-methyl-5-fluoro-1-benzopyran-7-yl ester]",440

# Same assay, conditions: human PBMC pretreated with drug 60 min, stimulated with LPS (E. coli O55:B5) 100 ng/mL, overnight culture, TNFα in supernatant by ELISA; read-out: 50% Inhibition of TNFα level (IC50)
row,SMILES,IC50 [nM]
1,Cc1c(Cc2ccccc2)c(=O)oc2cc(Cn3ccnc3N)c(Cl)cc12 [Example 26-16],8600
2,Cc1c(Cc2cccc(N(C)C)c2)c(=O)oc2cc(OC(=O)N(C)C)ccc12 [Example 14-72],1900
3,CCc1cc2c(C)c(Cc3ccccc3)c(=O)oc2cc1OC(=O)N(C)C [Example 14-9],4600
4,Cc1c(Cc2cccc([N+](=O)[O-])c2)c(=O)oc2cc(OC(=O)N(C)C)cc(F)c12 [Example 14-5],3700
5,CCc1c(Cc2cccc(N)c2)c(=O)oc2cc(OC(=O)N(C)C)ccc12 [Example 14-78],1300
6,CCc1c(Cc2cccc([N+](=O)[O-])c2)c(=O)oc2cc(Oc3ncccn3)cc(F)c12 [Example 20-58],11900
7,"Cc1c(Cc2ccccc2)c(=O)oc2cc(Cn3ccnc3N)ccc12 [Example 25, 2-oxo-3-benzyl-4-methyl-7-(2-aminoimidazol-1-yl-methyl)-1H-benzopyrane]",13700
8,CCc1c(Cc2cccc(NC(C)=O)c2)c(=O)oc2cc(Oc3ncccn3)c(Cl)cc12 [Example 20-57],3600
9,CCc1c(Cc2cccc(NC(C)=O)c2)c(=O)oc2cc(Oc3nccs3)ccc12 [Example 22-8],< 600
10,Cc1cc2c(C)c(Cc3ccccc3)c(=O)oc2cc1OC(=O)N(C)C [Example 14-14],400
11,Cc1c(Cc2ccncc2)c(=O)oc2cc(Oc3ncccn3)ccc12 [Example 20-10],10400
12,Cc1c(Cc2ccc(C(C)C)cc2)c(=O)oc2cc(OC(=O)N(C)C)ccc12 [Example 14-52],11600
13,Cc1c(Cc2cccc(N)c2)c(=O)oc2cc(Oc3nccs3)ccc12 [Example 22-4],6000
14,Cc1c(Cc2cccc(N)c2)c(=O)oc2cc(OC(=O)N(C)C)cc(F)c12 [Example 14-6],1600
15,CCc1c(Cc2cccc(N)c2)c(=O)oc2cc(Oc3nccs3)ccc12 [Example 22-7],4200
16,CCOC(=O)CC(=O)Nc1cccc(Cc2c(C)c3cc(Cl)c(OC(=O)N(C)C)cc3oc2=O)c1 [Example 14-26],50
17,CN(C)C(=O)Oc1ccc2c(-c3ccccc3)c(Cc3ccc(F)cc3)c(=O)oc2c1 [Example 14-84],1670
18,CC(=O)CC(=O)Nc1cccc(Cc2c(C)c3cc(Cl)c(Oc4ncccn4)cc3oc2=O)c1 [Example 20-42],2200
19,Cc1c(Cc2ccccc2)c(=O)oc2cc(Oc3ncccn3)c(Br)cc12 [Example 20-4],9500

row,SMILES,IC50 [nM]
1,Cc1c(Cc2ccccc2)c(=O)oc2cc(OC(=O)N(C)C)c([N+](=O)[O-])cc12 [Example 14-17],120
2,CCc1c(Cc2cccc([N+](=O)[O-])c2)c(=O)oc2cc(OC(=O)N(C)C)ccc12 [Example 14-77],900
3,Cc1c(Cc2ccccc2N)c(=O)oc2cc(OC(=O)N(C)C)c(Cl)cc12 [Example 14-20],490
4,CCCc1c(Cc2ccccc2)c(=O)oc2cc(OC(=O)N(C)C)c(Cl)cc12 [Example 14-83],780
5,CCc1c(Cc2ccccc2)c(=O)oc2cc(Oc3nccs3)ccc12 [Example 22-10],2500
6,CCc1c(Cc2cccc([N+](=O)[O-])c2)c(=O)oc2cc(Oc3nccs3)ccc12 [Example 22-11],3200
7,Cc1c(Cc2cccc([N+](=O)[O-])c2)c(=O)oc2cc(Oc3nccs3)ccc12 [Example 22-2],6600
8,CC(=O)Nc1cccc(Cc2c(C)c3ccc(OC(=O)N(C)C)cc3oc2=O)c1 [Example 14-60],1100
9,Cc1c(Cc2ccc(S(C)(=O)=O)cc2)c(=O)oc2cc(OC(=O)N(C)C)ccc12 [Example 14-43],6600
10,CCOC(=O)CC(=O)Nc1cccc(Cc2c(CC)c3c(F)cc(Oc4ncccn4)cc3oc2=O)c1 [Example 20-61],650
11,Cc1c(Cc2cccc(N)c2)c(=O)oc2cc(Oc3ncccn3)c(Cl)cc12 [Example 20-26],9800
12,CC(=O)Nc1cccc(Cc2c(C)c3c(F)cc(Oc4ncccn4)cc3oc2=O)c1 [Example 20-39],5400
13,CCCCS(=O)(=O)Nc1cccc(Cc2c(C)c3cc(Cl)c(Oc4ncccn4)cc3oc2=O)c1 [Example 20-48],1800
14,Cc1c(Cc2ccccn2)c(=O)oc2cc(OC(=O)N(C)C)ccc12 [Example 14-30],6470
15,CCc1c(Cc2cccc(NC(C)=O)c2)c(=O)oc2cc(Oc3ncccn3)cc(F)c12 [Example 20-60],4400
16,Cc1c(Cc2cccc(N)c2)c(=O)oc2cc(OC(=O)N(C)C)ccc12 [Example 14-65],2700
17,CCOC(=O)CNC(=O)Nc1cccc(Cc2c(C)c3ccc(OC(=O)N(C)C)cc3oc2=O)c1 [Example 14-71],2400
18,CCc1c(Cc2cccc([N+](=O)[O-])c2)c(=O)oc2cc(Oc3ncccn3)c(Cl)cc12 [Example 20-55],6400
19,CC(=O)NCC(=O)Nc1cccc(Cc2c(C)c3cc(Cl)c(Oc4ncccn4)cc3oc2=O)c1 [Example 20-30],5800

row,SMILES,IC50 [nM]
1,CCNC(=O)Nc1cccc(Cc2c(C)c3ccc(OC(=O)N(C)C)cc3oc2=O)c1 [Example 14-69],2400
2,CCOC(=O)CCC(=O)Nc1cccc(Cc2c(C)c3cc(Cl)c(Oc4ncccn4)cc3oc2=O)c1 [Example 20-28],1200
3,Cc1c(Cc2ccccc2)c(=O)oc2cc(C(C)(F)F)ccc12 [Example 26-11],9000
4,CCc1c(Cc2ccccc2)c(=O)oc2cc(OC(=O)N(C)C)ccc12 [Example 14-73],1700
5,CCOC(=O)CC(=O)Nc1cccc(Cc2c(CC)c3ccc(Oc4nccs4)cc3oc2=O)c1 [Example 22-9],270
6,CCc1c(Cc2ccccc2)c(=O)oc2cc(Oc3ncccn3)ccc12 [Example 20-49],10900
7,CCS(=O)(=O)Nc1cccc(Cc2c(C)c3cc(Cl)c(Oc4ncccn4)cc3oc2=O)c1 [Example 20-44],300
8,CCOC(=O)CCC(=O)Nc1cccc(Cc2c(C)c3ccc(Oc4ncccn4)cc3oc2=O)c1 [Example 20-21],2800
9,COC(=O)c1cccc(Cc2c(C)c3ccc(OC(=O)N(C)C)cc3oc2=O)c1 [Example 14-67],1700
10,Cc1c(Cc2ccccc2)c(=O)oc2cc(C(O)c3ccsc3)ccc12 (stereo not drawn) [Example 26-22],8200
11,Cc1c(Cc2ccccc2)c(=O)oc2cc(OC(=O)N(C)C)c(Br)cc12 [Example 14-15],60
12,CCOC(=O)CC(=O)Nc1cccc(Cc2c(C)c3c(F)cc(OC(=O)N(C)C)cc3oc2=O)c1 [Example 14-8],140
13,Cc1c(Cc2ccccc2)c(=O)oc2cc(C(F)C#N)ccc12 (stereo not drawn) [Example 26-24],1700
14,Cc1c(Cc2ccccc2)c(=O)oc2cc(Oc3ncccn3)c(I)cc12 [Example 20-5],8800
15,Cc1c(Cc2cccc([N+](=O)[O-])c2)c(=O)oc2cc(OC(=O)N(C)C)c(Cl)cc12 [Example 14-23],< 600
16,Cc1c(Cc2cccc(NS(C)(=O)=O)c2)c(=O)oc2cc(Oc3ncccn3)c(Cl)cc12 [Example 20-41],< 600
17,Cc1ccc(S(=O)(=O)Nc2cccc(Cc3c(C)c4cc(Cl)c(Oc5ncccn5)cc4oc3=O)c2)cc1 [Example 20-45],7200
18,CCc1c(Cc2cccc(NC(C)=O)c2)c(=O)oc2cc(OC(=O)N(C)C)ccc12 [Example 14-79],1600
